Measurements published in US7169773B2, “Compounds” (SmithKline Beecham Corporation, priority 2004, dated 2007).

Experiments:
human MC4R = human MC4R (Homo sapiens, UniProt P32245); assay: Reporter Gene Assay (CHO-6×CRE-luc+ reporter cell lines, luciferase); type: cell-based; settings: for Emax: 4 h, read-out: % of MSH; for Emax / % of MSH: percentage of the fold stimulation in the NDP-αMSH control (1×10^−7 M NDP-αMSH), CHO-6×CRE-luc+ cells, human MC4R; for EC50: CHO-6×CRE-luc+ reporter cells expressing human MC4R, 4 h at 37° C., luciferase activity
human MC4R, sequence (P32245 whole entry): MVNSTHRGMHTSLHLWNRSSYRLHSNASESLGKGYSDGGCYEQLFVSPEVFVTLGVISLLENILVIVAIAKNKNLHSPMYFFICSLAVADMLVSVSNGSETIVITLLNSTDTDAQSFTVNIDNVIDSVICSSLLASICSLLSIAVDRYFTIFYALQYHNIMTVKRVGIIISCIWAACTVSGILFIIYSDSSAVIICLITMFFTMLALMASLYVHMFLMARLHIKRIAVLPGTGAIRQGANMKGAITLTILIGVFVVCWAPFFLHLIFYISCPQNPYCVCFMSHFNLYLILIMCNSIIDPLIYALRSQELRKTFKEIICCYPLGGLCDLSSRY
Description: Reporter Gene Assay CHO-6×CRE-luc^+ reporter cell lines expressing human MC1R, MC3R, MC4R, and MC5R (GenBank accession numbers X65634, LO6155, S77415 and U08353) and the CHO host reporter gene cell line were propagated in complete medium in T225 flasks. Forty-eight hours prior to assay, cells were harvested with 2 ml of 0.05% trypsin, washed with complete medium and plated at a concentration of 4000 cells/well in complete medium. Sixteen hours prior to the assay, the medium was removed from the cells and replaced with 90 μl/well of serum-free DMEM/F12. At the time of the assay the compounds were added in a 10 μl volume and plates were incubated for 4 h at 37° C. in a cell culture incubator. The medium was aspirated followed by the addition of 50 μl of a 1:1 mixture of LucLiteTM and dPBS containing 1 mM CaCl2 and 1 mM MgCl2. The plates were then sealed and subjected to dark adaptation at room temperature for 10 min before luciferase activity was quantitated on a TopCountTM microplate scintillation counter (Packard) using 3 s/well count time. The NDP-αMSH and […]-5 concentration-response curve data were expressed as a percentage of the fold stimulation in the NDP-αMSH control for each receptor subtype. The control value is the average of duplicate wells treated with 1×10^-7 M NDP-αMSH.

Row | SMILES | Emax (human MC4R) [%] | EC50 (human MC4R) [nM] | melting point [°C] | % of MSH (human MC4R) [%]
1 | COc1cccc2c1CCCCN2C(=O)CN1C(=O)[C@@H](Cc2n[nH]c3c2CCCC3)C(=O)N(c2ccccc2)c2ccccc21 [Example 7, (3R)-1-[2-(6-methoxy-2,3,4,5-tetrahydro-1H-1-benzazepin-1-yl)-2-oxoethyl]-5-phenyl-3-(4,5,6,7-tetrahydro-1H-indazol-3-ylmethyl)-1H-1,5-benzodiazepine-2,4(3H,5H)-dione] | 41 | 158 |  | 
2 | COc1cccc2c1CCCCN2C(=O)CN1C(=O)[C@@H](Cc2n[nH]c3ccccc23)C(=O)N(c2ccccc2)c2ccccc21 [Example 5, (3R)-3-(1H-indazol-3-ylmethyl)-1-[2-(6-methoxy-2,3,4,5-tetrahydro-1H-1-benzazepin-1-yl)-2-oxoethyl]-5-phenyl-1H-1,5-benzodiazepine-2,4(3H,5H)-dione] | 44 | 282 | 186 to 214 | 
3 | COc1ccc(N(C(=O)CN2C(=O)C(Cc3n[nH]c4ccccc34)(OC)C(=O)N(c3cccnc3)c3ccccc32)C(C)C)cc1 (single isomer, unassigned) [Example 9, 2-[3-(1H-indazol-3-ylmethyl)-3-methoxy-2,4-dioxo-5-pyridin-3-yl-2,3,4,5-tetrahydro-1H-1,5-benzodiazepin-1-yl]-N-isopropyl-N-(4-methoxyphenyl)acetamide] |  | 158 |  | 68
4 | COc1ccc(N(C(=O)CN2C(=O)C(Cc3n[nH]c4ccccc34)(OC)C(=O)N(c3cccnc3)c3ccccc32)C(C)C)cc1 (racemic) [Example 8, 2-[3-(1H-indazol-3-ylmethyl)-3-methoxy-2,4-dioxo-5-pyridin-3-yl-2,3,4,5-tetrahydro-1H-1,5-benzodiazepin-1-yl]-N-isopropyl-N-(4-methoxyphenyl)acetamide] | 74 | 251 |  | 
5 | COc1ccc2c(c1)CCCCN2C(=O)CN1C(=O)C(Cc2n[nH]c3ccccc23)C(=O)N(c2ccccc2)c2ccccc21 (centres unmarked) [Example 2, 3-(1H-indazol-3-ylmethyl)-1-[2-(7-methoxy-2,3,4,5-tetrahydro-1H-1-benzazepin-1-yl)-2-oxoethyl]-5-phenyl-1H-1,5-benzodiazepine-2,4(3H,5H)-dione] | 42 | 288 | 215 to 230 | 
6 | O=C(CN1C(=O)C(Cc2n[nH]c3cc(F)ccc23)C(=O)N(c2ccccc2)c2ccccc21)N1CCCCc2ccccc21 (centres unmarked) [Example 12, 3-[(6-fluoro-1H-indazol-3-yl)methyl]-1-[2-oxo-2-(2,3,4,5-tetrahydro-1H-1-benzazepin-1-yl)ethyl]-5-phenyl-1H-1,5-benzodiazepine-2,4(3H,5H)-dione] | 52 | 174 |  | 
7 | Cc1cc(C)c2c(c1)N(C(=O)CN1C(=O)[C@@H](Cc3n[nH]c4c3CCCC4)C(=O)N(c3ccccc3)c3ccccc31)CCCC2 [Example 6, (3R)-1-[2-(6,8-dimethyl-2,3,4,5-tetrahydro-1H-1-benzazepin-1-yl)-2-oxoethyl]-5-phenyl-3-(4,5,6,7-tetrahydro-1H-indazol-3-ylmethyl)-1H-1,5-benzodiazepine-2,4(3H,5H)-dione] | 35 | 257 |  | 
8 | COc1cccc2c1CCCCN2C(=O)CN1C(=O)C(Cc2n[nH]c3ccccc23)C(=O)N(c2ccccc2)c2ccccc21 (racemic) [Example 4, 3-(1H-indazol-3-ylmethyl)-1-[2-(6-methoxy-2,3,4,5-tetrahydro-1H-1-benzazepin-1-yl)-2-oxoethyl]-5-phenyl-1H-1,5-benzodiazepine-2,4(3H,5H)-dione] | 45 | 178 |  | 
9 | COc1ccc(N(C(=O)CN2C(=O)C(Cc3n[nH]c4ccccc34)(OC)C(=O)N(c3cccnc3)c3ccccc32)C(C)C)cc1 (single isomer, unassigned) [Example 10, 2-[3-(1H-indazol-3-ylmethyl)-3-methoxy-2,4-dioxo-5-pyridin-3-yl-2,3,4,5-tetrahydro-1H-1,5-benzodiazepin-1-yl]-N-isopropyl-N-(4-methoxyphenyl)acetamide] |  | 200 |  | 29
10 | O=C(CN1C(=O)C(Cc2n[nH]c3ccccc23)C(=O)N(c2ccccc2)c2ccccc21)N1CCCCc2ccccc21 (racemic) [Example 1, 3-(1H-indazol-3-ylmethyl)-1-[2-oxo-2-(2,3,4,5-tetrahydro-1H-1-benzazepin-1-yl)ethyl]-5-phenyl-1H-1,5-benzodiazepine-2,4(3H,5H)-dione] | 60 | 309 |  | 
11 | COC1(Cc2n[nH]c3ccccc23)C(=O)N(CC(=O)N2CCCCc3ccccc32)c2ccccc2N(c2ccccc2)C1=O (centres unmarked) [Example 11, 3-(1H-indazol-3-ylmethyl)-3-methoxy-1-[2-oxo-2-(2,3,4,5-tetrahydro-1H-1-benzazepin-1-yl)ethyl]-5-phenyl-1H-1,5-benzodiazepine-2,4(3H,5H)-dione] | 59 | 112 |  | 
12 | Cc1cc(C)c2c(c1)N(C(=O)CN1C(=O)C(Cc3n[nH]c4ccccc34)C(=O)N(c3ccccc3)c3ccccc31)CCCC2 (racemic) [Example 3, 1-[2-(6,8-dimethyl-2,3,4,5-tetrahydro-1H-1-benzazepin-1-yl)-2-oxoethyl]-3(1H-indazol-3-ylmethyl)-5-phenyl-1H-1,5-benzodiazepine-2,4(3H,5H)-dione] | 47 | 60.3 |  | 
